Experimental data published in US5872130A, “Quinoline type mevalonoactones” (Nissan Chemical Industries Ltd., priority 1988, dated 1999).

System: cholesterol biosynthesis
Assay: Test A: Inhibition of cholesterol biosynthesis from acetate in vitro (rat liver microsome and sup fraction)
Type: biochemical, male Wistar rat
Conditions: based on the activities of CS-514 being evaluated to be 1
Experimental: Test A: Inhibition of cholesterol biosynthesis from acetate in vitro
Enzyme solution was prepared from liver of male Wistar rat billialy cannulated and discharged bile for over 24 hours. Liver was cut out at mid-dark and microsome and supernatant fraction which was precipitable with 40-80% of saturation of ammonium sulfate (sup fraction) were prepared from liver homogenate according to the modified method of Knauss et al; Kuroda, M, et al, Biochim. Biophys. Acta, 489, 119 (1977). For assay of cholesterol biosynthesis, microsome (0.1 mg protein) and sup fraction (1.0 mg protein) were incubated for 2, hours at 37° C. in 200 μl of the reaction mixture containing ATP; 1 mM, Glutathione; 6 mM, Glucose-1-phosphate; 10 mM, NAD; 0.25 mM, NADP; 0.25 mM, CoA; 0.04 mM and 0.2 mM [2-^14 C]sodium acetate (0.2 μCi) with 4 μl of test compound solution dissolved in water or dimethyl sulfoxide. To stop reaction and saponify, 1 ml of 15% EtOH-KOH was added to the reactions and heated at 75° C. for 1 hour. […] Inhibitory activity of compounds was indicated with IC50.

| SMILES | Relative activities by Test A |
| --- | --- |
| CCOC(=O)CC(O)CC(O)/C=C/c1c(CC)nc2ccccc2c1-c1ccc(F)cc1 (centres unmarked) [I-117] | 0.37 |
| CC(C)c1nc2c(Cl)cc(Cl)cc2c(-c2ccc(F)cc2)c1/C=C/C(O)CC(O)CC(=O)O (centres unmarked) [I-522] | 0.76 |
